Laboratory results published in patent publication US12336989B2, “Transmucosal methods for treating psychiatric and neurological conditions” (INTRA-CELLULAR THERAPIES, INC., priority 2017, dated 2025).

Assays:
[1] = target: H1 histaminergic receptors (Homo sapiens, UniProt P35367); settings: cited from earlier work
5-HT2C receptors = target: T1, 5-HT2C receptors (Homo sapiens, UniProt P28335); settings: cited from earlier work
T1 sequence (P28335 33-458): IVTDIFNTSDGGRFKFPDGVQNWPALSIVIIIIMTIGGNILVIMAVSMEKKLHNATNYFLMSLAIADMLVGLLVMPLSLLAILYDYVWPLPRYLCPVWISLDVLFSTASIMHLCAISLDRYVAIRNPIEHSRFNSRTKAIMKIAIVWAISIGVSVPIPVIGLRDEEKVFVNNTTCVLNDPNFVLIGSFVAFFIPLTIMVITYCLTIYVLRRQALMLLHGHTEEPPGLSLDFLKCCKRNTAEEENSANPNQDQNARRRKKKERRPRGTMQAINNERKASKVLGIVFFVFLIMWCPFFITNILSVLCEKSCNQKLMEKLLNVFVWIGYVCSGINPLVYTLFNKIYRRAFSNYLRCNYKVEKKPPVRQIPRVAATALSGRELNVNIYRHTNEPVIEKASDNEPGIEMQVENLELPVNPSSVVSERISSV

[2] = Example 2: pharmacokinetics of oral dosing in dogs; type: in vivo, beagle dogs; settings: sublingual and subcutaneous dosing at 1.0 mg/kg vs oral 15 mg/kg
Method: For control, the dogs are administered empty capsules. For the Compound of Formula I, the dogs are administered normal-release oral capsules. Blood samples are obtained at 0.25 hours, 0.5 hours, 1 hour, 4 hours, 8 hour and 24 hours. […] Cmax, Tmax and area-under-the-curve (AUC, 0-24 hours) are calculated using Phoenix WinNonlin software.

muscarinic receptors = settings: cited from earlier work

H1 histaminergic receptors, sequence (P35367 whole entry): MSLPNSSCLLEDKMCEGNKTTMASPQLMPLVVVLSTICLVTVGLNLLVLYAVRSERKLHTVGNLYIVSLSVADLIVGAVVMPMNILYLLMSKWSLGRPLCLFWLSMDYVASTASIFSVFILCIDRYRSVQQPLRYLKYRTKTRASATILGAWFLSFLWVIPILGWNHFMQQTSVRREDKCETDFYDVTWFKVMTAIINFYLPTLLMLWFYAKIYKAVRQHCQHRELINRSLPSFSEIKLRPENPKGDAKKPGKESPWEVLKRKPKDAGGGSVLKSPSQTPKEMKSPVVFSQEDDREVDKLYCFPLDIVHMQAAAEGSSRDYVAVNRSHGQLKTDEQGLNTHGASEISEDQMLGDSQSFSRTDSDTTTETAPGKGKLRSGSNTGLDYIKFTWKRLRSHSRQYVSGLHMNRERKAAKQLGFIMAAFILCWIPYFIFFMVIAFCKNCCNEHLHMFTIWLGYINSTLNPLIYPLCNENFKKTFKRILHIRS

**Q.** Which “binding to H1 histaminergic receptors” value [1] does the source give for `CN1CCN2c3c(cccc31)[C@@H]1CN(CCCC(=O)c3ccc(F)cc3)CC[C@@H]12` [Compound of Formula I, 1-(4-fluoro-phenyl)-4-((6bR,10aS)-3-methyl-2,3,6b,9,10,10a-hexahydro-1H,7H-pyrido[3′,4′:4,5]pyrrolo[1,2,3-de]quinoxalin-8-yl)-butan-1-one] here?
**A.** negligible binding

**Q.** What about the “binding to 5-HT2C receptors” value (5-HT2C receptors) of the same molecule?
**A.** negligible binding

**Q.** What about the “24-hour AUC, times higher than oral dosing at 15 mg/kg” value [2] of the same molecule?
**A.** about three

**Q.** What about the “binding to muscarinic receptors” value (muscarinic receptors) of the same molecule?
**A.** negligible binding
